From publication PMC3958311 (EMBO Molecular Medicine, 2014)
In brackets after ≈: the same amount, converted by molar mass. Where two headings read alike, the source gives them in different places.

Tests used:
[1] = system: M. bovis BCG Pasteur; test: microbe, parasite or virus in culture; assay type: cell-based, Mycobacterium bovis BCG; conditions: Mycobacterium tuberculosis variant bovis BCG, BCG
[2] = system: M. massiliense 2005-0484; test: MIC99 by REMA; assay type: cell-based; conditions: Mycobacteroides abscessus, 20050484; M. massiliense 2005-0484; read-out: MIC99
[3] = system: M. smegmatis GM22; test: microbe, parasite or virus in culture; assay type: cell-based; conditions: Mycolicibacterium smegmatis; for MIC99: M. smegmatis GM22, overproduces NfnB nitroreductase, read-out: MIC99
[4] = system: M. tuberculosis H37Rv; test: MIC by resazurin reduction microplate assay (REMA); assay type: cell-based, Mycobacterium tuberculosis; conditions: Mycobacterium tuberculosis; for MIC99: read-out: MIC99
[5] = system: M. bolletii 1999-0888; test: MIC99 by REMA; assay type: cell-based; conditions: Mycobacteroides abscessus, 19990888; M. bolletii 1999-0888; read-out: MIC99
[6] = system: M. vaccae ATCC 15483; test: MIC99 by REMA; assay type: cell-based; conditions: Mycolicibacterium vaccae, ATCC15483; M. vaccae ATCC 15483; read-out: MIC99
[7] = system: M. tuberculosis MDR_CHUV; test: MIC99 by REMA; assay type: cell-based, Mycobacterium tuberculosis; conditions: Mycobacterium tuberculosis; read-out: MIC99
[8] = system: M. avium ATCC 15769; test: MIC99 by REMA; assay type: cell-based; conditions: Mycobacterium avium, ATCC15769; M. avium ATCC 15769; read-out: MIC99
[9] = system: M. bovis BCG BN2; assay type: cell-based, Mycobacterium bovis BCG
[10] = system: C. glutamicum ATCC 13032; test: MIC99 by REMA; assay type: cell-based, Corynebacterium glutamicum; conditions: Corynebacterium glutamicum, ATCC13032; C. glutamicum ATCC 13032; read-out: MIC99
[11] = system: M. smegmatis mc^2155; test: MIC99 by REMA; assay type: cell-based, Mycobacterium smegmatis; conditions: Mycolicibacterium smegmatis; M. smegmatis mc^2155; read-out: MIC99
[12] = system: M. marinum Strain M; test: MIC99 by REMA; assay type: cell-based, Mycobacterium marinum; conditions: Mycobacterium marinum; M. marinum Strain M; read-out: MIC99
[13] = system: C. diphtheriae DSM 44123; test: MIC99 by REMA; assay type: cell-based, Corynebacterium diphtheriae; conditions: Corynebacterium diphtheriae, DSM44123; C. diphtheriae DSM 44123; read-out: MIC99
[14] = system: M. abscessus 2005-0524; test: MIC99 by REMA; assay type: cell-based; conditions: Mycobacteroides abscessus, 20050524; M. abscessus 2005-0524; read-out: MIC99
[15] = system: M. tuberculosis H37Rv; assay type: in vivo, BALB/c mice
[16] = in vivo
Procedure: Table S5. Principal pharmacokinetic properties1
1 See Figure S5 for primary data.
Compound levels were measured in serum from individual female mice (3/time point) that had received a single dose of 25 mg/kg. Maximum concentration (Cmax); area under the curve (AUC); apparent clearance.
Comparative pharmacokinetic analysis. After receiving a single dose
(25 mg/kg) of PBTZ169 or BTZ043 by gavage, groups of three female mice were sacrificed at the times indicated, blood was obtained by cardiac puncture and the drug levels in serum determined by LC-MS/MS technique (limit of quantification 10 μg/L).

[17] = human
[18] = system: zebrafish embryos; assay type: in vivo, zebrafish (Danio rerio)
Procedure: On examination of infected zebrafish embryos treated with BTZ043 it was observed that the compound affected embryo development (Fig 6A–G) especially at concentrations above 25 nM. […] These defects were also observed when uninfected embryos were exposed to BTZ043.
Figure 6 Effect of BTZ043 on M. marinum infected zebrafish embryo development. A–D M. marinum infected zebrafish embryos were treated with BTZ043 for 5 days at the concentrations indicated and photographed using a Leica DFC420C camera. The M strain was used for infection. E–F Images of the notochord from untreated and treated zebrafish, arrows indicate developmental abnormalities. G Analysis of zebrafish embryos displaying developmental abnormalities treated with BTZ043 (BTZ) or PBTZ169 (PBTZ) at the concentrations indicated.

[19] = mouse
[20] = in vitro; conditions: human, microsomes
[21] = system: M. marinum strain M; assay type: in vivo, zebrafish (Danio rerio); conditions: 5 days treatment
[22] = biological target: T1, purified recombinant M. smegmatis NfnB (Mycolicibacterium smegmatis, UniProt A0R6D0); test: NfnB-mediated nitroreduction followed by LC-MS; assay type: biochemical
T1 construct: made in house
T1 sequence (A0R6D0 whole entry): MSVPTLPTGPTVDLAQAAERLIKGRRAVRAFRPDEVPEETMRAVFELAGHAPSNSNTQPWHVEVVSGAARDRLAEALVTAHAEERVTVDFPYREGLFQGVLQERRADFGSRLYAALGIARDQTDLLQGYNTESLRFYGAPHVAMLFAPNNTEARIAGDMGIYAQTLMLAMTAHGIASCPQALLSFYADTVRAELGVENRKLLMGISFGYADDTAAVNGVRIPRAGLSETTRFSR

[23] = in vitro; conditions: mouse, microsomes
[24] = system: HepG2 human cell line
[25] = biological target: M. tuberculosis DprE1 (Mycobacterium tuberculosis, UniProt P9WJF1); test: DprE1 inhibition, two step peroxidase-coupled assay with Amplex Red; assay type: biochemical; conditions: 5 min incubation, 5 μM enzyme, 200 μM FPR
Sequence of M. tuberculosis DprE1 (P9WJF1 whole entry, looked up): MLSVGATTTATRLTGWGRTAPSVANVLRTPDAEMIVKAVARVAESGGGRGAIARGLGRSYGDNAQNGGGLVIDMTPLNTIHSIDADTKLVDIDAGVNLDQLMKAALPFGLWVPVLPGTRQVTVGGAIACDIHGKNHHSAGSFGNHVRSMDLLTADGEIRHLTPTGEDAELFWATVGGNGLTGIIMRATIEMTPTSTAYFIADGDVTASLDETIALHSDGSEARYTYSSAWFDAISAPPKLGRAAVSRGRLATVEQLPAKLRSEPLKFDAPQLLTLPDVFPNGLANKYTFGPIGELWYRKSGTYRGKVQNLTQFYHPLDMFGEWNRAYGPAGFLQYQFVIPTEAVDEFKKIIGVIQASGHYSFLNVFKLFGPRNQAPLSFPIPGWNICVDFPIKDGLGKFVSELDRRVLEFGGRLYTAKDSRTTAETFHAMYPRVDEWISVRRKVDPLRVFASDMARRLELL

[26] = system: M. tuberculosis clinical isolate 5055; test: Drug susceptibility testing on solid Löwenstein-Jensen medium; assay type: cell-based; conditions: Mycobacterium tuberculosis; […]; solid Löwenstein-Jensen medium; read-out: MIC
[27] = system: M. tuberculosis clinical isolate 6341; test: as above; assay type: cell-based; conditions: Mycobacterium tuberculosis; […]; solid Löwenstein-Jensen medium; read-out: MIC
[28] = system: M. tuberculosis clinical isolate 6448; test: as above; assay type: cell-based; conditions: Mycobacterium tuberculosis; […]; solid Löwenstein-Jensen medium; read-out: MIC
[29] = system: M. tuberculosis clinical isolate 6374; test: as above; assay type: cell-based; conditions: Mycobacterium tuberculosis; […]; solid Löwenstein-Jensen medium; read-out: MIC
[30] = system: M. tuberculosis clinical isolate 6412; test: as above; assay type: cell-based; conditions: Mycobacterium tuberculosis; […]; solid Löwenstein-Jensen medium; read-out: MIC
[31] = system: M. tuberculosis clinical isolate 7384; test: as above; assay type: cell-based; conditions: Mycobacterium tuberculosis; […]; solid Löwenstein-Jensen medium; read-out: MIC
[32] = system: M. tuberculosis H37Rv; test: as above; assay type: cell-based; conditions: Mycobacterium tuberculosis; H37Rv, Sensitive; solid Löwenstein-Jensen medium, 21-28 days; read-out: MIC
[33] = system: M. tuberculosis clinical isolate 4328; test: as above; assay type: cell-based; conditions: Mycobacterium tuberculosis; […]; solid Löwenstein-Jensen medium; read-out: MIC
[34] = system: M. tuberculosis clinical isolate 6418; test: as above; assay type: cell-based; conditions: Mycobacterium tuberculosis; […]; solid Löwenstein-Jensen medium; read-out: MIC
[35] = system: M. tuberculosis clinical isolate 5253; test: as above; assay type: cell-based; conditions: Mycobacterium tuberculosis; […]; solid Löwenstein-Jensen medium; read-out: MIC
[36] = female, mouse, in vivo, po, 25 mg/kg
[37] = Table 1, H37Rv, REMA, read-out: MIC M. tuberculosis
[38] = Table S1, M. tuberculosis H37Rv, read-out: MIC

## CO[C@H]1/C=C/O[C@@]2(C)Oc3c(C)c(O)c4c(O)c(c(/C=N/N5CCN(C)CC5)c(O)c4c3C2=O)NC(=O)/C(C)=C\C=C\[C@H](C)[C@H](O)[C@@H](C)[C@@H](O)[C@@H](C)[C@H](OC(C)=O)[C@@H]1C [RIF, rifampicin]
[1]
  MIC99: 0.001 µg/mL (≈ 0.00122 µM)
[2]
  MIC99: 25 µg/mL (≈ 30.4 µM)
[3]
  MIC99: 1 µg/mL (≈ 1.22 µM)
[4]; M. tuberculosis H37Rv
  MIC99: 0.001 µg/mL (≈ 0.00122 µM)
[5]
  MIC99: 50 µg/mL (≈ 60.8 µM)
[6]
  MIC99: 100 µg/mL (≈ 122 µM)
[7]
  MIC99: > 100 µg/mL
[8]
  MIC99: 25 µg/mL (≈ 30.4 µM)
[9]
  MIC99: 0.0008 µg/mL (≈ 0.000972 µM)
[10]
  MIC99: 0.004 µg/mL (≈ 0.00486 µM)
[11]
  MIC99: 0.5 µg/mL (≈ 0.608 µM)
[12]
  MIC99: 0.39 µg/mL (≈ 0.474 µM)
[13]
  MIC99: 0.0008 µg/mL (≈ 0.000972 µM)
[14]
  MIC99: 6.25 µg/mL (≈ 7.59 µM)

## C[C@H]1COC2(CCN(c3nc(=O)c4cc(C(F)(F)F)cc([N+](=O)[O-])c4s3)CC2)O1 [BTZ043, 2-[(2S)-2-methyl-1,4-dioxa-8-azaspiro[4.5]dec-8-yl]-8-nitro-6-(trifluoromethyl)-4H-1,3-benzothia-zin-4-one]
[1]
  MIC99: 0.001 µg/mL (≈ 0.00232 µM)
[15]; 50 mg/kg per day, 28 days
  bacterial burden in the lungs lower than untreated control: 0.6 logs
  bacterial burden in the spleens lower than untreated control: 1.7 logs
[15]; dose escalation study, 50 mg/kg, four weeks
  reduction of bacterial burden in the lungs and spleens: 1 log
[2]
  MIC99: > 100 µg/mL
[3]; GM22, read-out: MIC for GM22
  MIC: 0.05 µg/mL (≈ 0.116 µM)
[3]
  MIC99: 0.031 µg/mL (≈ 0.0719 µM)
[4]; M. tuberculosis H37Rv
  MIC99: 0.001 µg/mL (≈ 0.00232 µM)
[16]; [36]
  Cmax: 1920 ng/mL
  half-life: 1.67 h
  k el: 0.000116 s⁻¹
[16]; serum, female mice, single dose 25 mg/kg by gavage, non-compartmental
  AUC: 259829 µg·min/L
[5]
  MIC99: > 100 µg/mL
[17]
  clearance on incubation with microsomes (in words): medium clearance values
[6]
  MIC99: > 100 µg/mL
[18]; 25 nM
  embryos affected (notochord defects, shortened Anterior-Posterior axis): 60.4%
[18]; 50 nM
  embryos affected (notochord defects, shortened Anterior-Posterior axis): 76.7%
[7]
  MIC99: 0.002 µg/mL (≈ 0.00464 µM)
[8]
  MIC99: > 100 µg/mL
[9]
  MIC99: >100 µg/mL
  fold increased resistance conferred by the Cys387Ser mutation in DprE1: > 10 000 fold
[19]
  clearance on incubation with microsomes (in words): medium clearance values
[10]
  MIC99: 0.063 µg/mL (≈ 0.146 µM)
[20]
  microsomal CLint: 16 µL/min/mg
[21]; 5 nM
  effect on the infection in zebrafish embryos: no significant effect
[21]; 25 or 50 nM
  bacterial burden in infected zebrafish embryos (fluorescence): almost no bacteria were present
[11]
  MIC99: 0.001 µg/mL (≈ 0.00232 µM)
[12]
  MIC99: 0.0007 µg/mL (≈ 0.00162 µM)
[22]
  NfnB-mediated reduction, species found by LC-MS: almost entirely converted to its hydroxylamino analogue
[13]
  MIC99: 0.06 µg/mL (≈ 0.139 µM)
[23]
  microsomal CLint: 12.2 µL/min/mg
[14]
  MIC99: > 100 µg/mL
[24]; HepG2
  TD50: 5 µg/mL
[24]; HepG2, REMA, triplicate, toxic dose inhibiting 50% of the population
  TD50: 5 µg/mL
[24]; HepG2, REMA, triplicate, toxic dose inhibiting 99% of the population
  TD99: 25 µg/mL
[24]; HepG2 cytotoxicity relative to MIC
  selectivity index: > 10 000
[25]
  concentration giving full inhibition of DprE1: 20 µM

## O=c1nc(N2CCN(CCCCc3ccccc3)CC2)sc2c([N+](=O)[O-])cc(C(F)(F)F)cc12 [PBTZ139]
[4]; [37]
  MIC: 0.00037 µg/mL (≈ 0.000751 µM)
[4]; [38]
  MIC: 0.00037 µg/mL (≈ 0.000751 µM)

## O=c1nc(N2CCN(CCC3CCCCC3)CC2)sc2c([N+](=O)[O-])cc(C(F)(F)F)cc12 [PBTZ129]
[4]; [37]
  MIC: 0.00019 µg/mL (≈ 0.000404 µM)
[4]; [38]
  MIC: 0.00019 µg/mL (≈ 0.000404 µM)

## NNC(=O)c1ccncc1 [INH, isoniazid]
[26]
  MIC: > 20 µg/mL
[27]
  MIC: > 20 µg/mL
[28]
  MIC: > 20 µg/mL
[29]
  MIC: > 20 µg/mL
[30]
  MIC: > 20 µg/mL
[31]
  MIC: > 20 µg/mL
[32]
  MIC: 0.125 µg/mL (≈ 0.911 µM)
[33]
  MIC: 0.125 µg/mL (≈ 0.911 µM)
[34]
  MIC: > 20 µg/mL
[35]
  MIC: > 20 µg/mL

## CCCCCCCN1CCN(c2nc(=O)c3cc(C(F)(F)F)cc([N+](=O)[O-])c3s2)CC1 [PBTZ134]
[15]; 50 mg/kg per day, 28 days
  reduction of bacterial burden in the spleens, fold more than BTZ043: 10 fold
[4]; [37]
  MIC: 0.00019 µg/mL (≈ 0.000414 µM)
[4]; [38]
  MIC: 0.00019 µg/mL (≈ 0.000414 µM)
[22]
  NfnB-mediated reduction, species found by LC-MS: as susceptible to NfnB-mediated reduction as BTZ043

## NC(=O)N1c2ccccc2C=Cc2ccccc21 [Carbamazepine]
[20]
  microsomal CLint: 0.5 µL/min/mg
[23]
  microsomal CLint: 1.1 µL/min/mg

## O=c1nc(N2CCN(CCCCOc3ccccc3)CC2)sc2c([N+](=O)[O-])cc(C(F)(F)F)cc12 [PBTZ137]
[4]; [37]
  MIC: 0.0015 µg/mL (≈ 0.00295 µM)
[4]; [38]
  MIC: 0.0015 µg/mL (≈ 0.00295 µM)
